Data: paper PMC10584170, “Machine learning-based phenotypic imaging to characterise the targetable biology of Plasmodium falciparum male gametocytes for the development of transmission-blocking antimalarials” (PLOS Pathogens, 2023)

Columns and labels:
[1] = system: P. falciparum female gametocytes; experiment: P. falciparum Dual Gamete Formation Assay (PfDGFA), female readout (Pfs25-positive female gametes); format: cell-based, Plasmodium falciparum NF54; conditions: for Average inhibition female (%): average of replicates; for % inhibition female (individual replicates) R1: replicate R1; for % inhibition female (individual replicates) R3: replicate R3; for % inhibition female (individual replicates) R4: replicate R4
Method in brief: (§1)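 Read-outs are automated image counts of exflagellation centres (brightfield, 10 frames over 1 s) and Pfs25-positive female gametes (Cy3 fluorescence).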

[2] = system: P. falciparum male gametocytes; experiment: P. falciparum Dual Gamete Formation Assay (PfDGFA), male readout (exflagellation); format: cell-based, Plasmodium falciparum NF54; conditions: for Average inhibition male (%): average of replicates; for % inhibition male (individual replicates) R1: replicate R1; for % inhibition male (individual replicates) R3: replicate R3; for % inhibition male (individual replicates) R4: replicate R4; for Activity: hit = >50% inhibition in male or female readout in at least 3 replicates, 0 = no class assigned
Method in brief: as §1

[3] = 2µM, 24h preincubation with gametocytes prior to induction of gametogenesis
[4] = 2µM, 24h preincubation, number of replicates with >50% inhibition in the female readout
[5] = 2µM, 24h preincubation, number of replicates with >50% inhibition in the male readout
[6] = PfDGFA at 2µM, 24h preincubation with gametocytes
[7] = PfDGFA at 2µM, 24h preincubation with gametocytes prior to induction of gametogenesis
[8] = PfDGFA at 2µM, 24h preincubation
[9] = 2µM, 24h preincubation, hits selected on >50% inhibition in the female readout across replicates
[10] = 2µM, 24h preincubation, hits selected on >50% inhibition in the male readout across replicates
[11] = 2µM, 24h preincubation with gametocytes

| SMILES | Average inhibition female (%) [1, 3] [%] | % inhibition female (individual replicates) R1 [1, 3] [%] | % inhibition female (individual replicates) R3 [1, 3] [%] | % inhibition female (individual replicates) R4 [1, 3] [%] | Average inhibition male (%) [2, 3] [%] | % inhibition male (individual replicates) R1 [2, 3] [%] | % inhibition male (individual replicates) R3 [2, 3] [%] | % inhibition male (individual replicates) R4 [2, 3] [%] | % inhibition female (individual replicates) R1 [1, 7] [%] | % inhibition female (individual replicates) R3 [1, 7] [%] | % inhibition female (individual replicates) R4 [1, 7] [%] | Average inhibition female (%) [1, 8] [%] | % inhibition male (individual replicates) R1 [2, 7] [%] | % inhibition male (individual replicates) R3 [2, 7] [%] | % inhibition male (individual replicates) R4 [2, 7] [%] | Average inhibition male (%) [2, 8] [%] | HitlevelF [1, 9] | HitlevelM [2, 10] | Activity [2, 8] | further results |
| --- | --- | --- | --- | --- | --- | --- | --- | --- | --- | --- | --- | --- | --- | --- | --- | --- | --- | --- | --- | --- |
| CCCCOc1cc(CNCCCCCCNCc2cc(OCCCC)cc3ccccc23)c2ccccc2c1.CS(=O)(=O)O [TCMDC-137824] | 23.5 | 22.5 | 5.4 | 30.9 | 32.5 | 29.7 | -0.8 | 46.2 |  |  |  |  |  |  |  |  |  |  |  | HitlevelF [1, 4]: 0; HitlevelM [2, 5]: 1 |
| COc1c(OC)c(OC)c2ccccc2c1CNCCCCCCNCc1c(OC)c(OC)c(OC)c2ccccc12.Cl [TCMDC-137827] |  |  |  |  |  |  |  |  |  |  |  |  |  |  |  |  |  |  |  | Average inhibition female (%) [1, 6]: 37.0%; % inhibition female (individual replicates) R1 [1, 6]: 45.3%; % inhibition female (individual replicates) R3 [1, 6]: 25.5%; % inhibition female (individual replicates) R4 [1, 6]: 33.3%; HitlevelF ([1]; number of replicates with >50% inhibition in the female readout, 2µM): 0; Average inhibition male (%) [2, 6]: 67.6%; % inhibition male (individual replicates) R1 [2, 6]: 64.0%; % inhibition male (individual replicates) R4 [2, 6]: 54.3%; HitlevelM ([2]; number of replicates with >50% inhibition in the male readout, 2µM): 3 |
| CCN(C)C(=O)n1ncc2c3c(N)nc(N)nc3ccc21 [TCMDC-137828] |  |  |  |  |  |  |  |  | 0.36 | -2.4 | 3.1 | -0.8 | 33.9 | 38.2 | 21.2 | 34.9 |  |  |  |  |
| COc1c(CNCCCCCCNCc2c(OC)c(OC)c3ccccc3c2OC)c(OC)c2ccccc2c1OC.CS(=O)(=O)O [TCMDC-137837] | 13.6 | 13.3 | 14.5 | 16.6 | 26.0 | 25.5 | 24.6 | 53.4 |  |  |  |  |  |  |  |  | 0 | 1 | 0 |  |
| C#CCOc1ccc2ccccc2c1CNCCCCCCNCc1c(OCC#C)ccc2ccccc12.CS(=O)(=O)O [TCMDC-137838] |  |  |  |  |  |  |  |  |  |  |  |  |  |  |  |  |  |  |  | Average inhibition female (%) [1, 11]: 57.5%; % inhibition female (individual replicates) R1 [1, 11]: 37.7%; % inhibition female (individual replicates) R3 [1, 11]: 36.7%; % inhibition female (individual replicates) R4 [1, 11]: 72.5%; Average inhibition male (%) [2, 11]: 97.5%; % inhibition male (individual replicates) R1 [2, 11]: 98.4%; % inhibition male (individual replicates) R3 [2, 11]: 92.7%; % inhibition male (individual replicates) R4 [2, 11]: 100.9% |
| COc1cc2ccccc2c(OC)c1CCNCCCCNCCc1c(OC)cc2ccccc2c1OC.CS(=O)(=O)O [TCMDC-137842] | 13.3 | 16.6 | -7.2 | 21.8 | 40.8 | 35.9 | -0.8 | 68.2 |  |  |  |  |  |  |  |  | 0 | 2 | 0 |  |
| C/C=C/COc1ccc2ccccc2c1CNCCCCCCCCNCc1c(OC/C=C/C)ccc2ccccc12.CS(=O)(=O)O.O [TCMDC-137844] | 23.4 | 25.6 | 6.4 | 40.3 | 25.4 | 38.1 | 0.24 | 61.8 |  |  |  |  |  |  |  |  |  |  |  | HitlevelF [1, 4]: 0; HitlevelM [2, 5]: 1 |
| CC(C)c1cc2c(ccc3nc(N)nc(N)c32)[nH]1 [TCMDC-137847] | 11.1 | 19.6 | 6.0 | 11.3 | 0.8 | 37.4 | -19.2 | -31.8 |  |  |  |  |  |  |  |  | 0 | 0 | 0 |  |
| CCc1cc2c3c(N)nc(N)nc3ccc2n1CC [TCMDC-137851] | 9.4 | 20.5 | -5.1 | 10.4 | -13.9 | 35.0 | -28.2 | -58.5 |  |  |  |  |  |  |  |  | 0 | 0 | 0 |  |
| Cl.Nc1nc(N)c2c(ccc3c2cnn3S(=O)(=O)N2CCCC2)n1 [TCMDC-137852] |  |  |  |  |  |  |  |  | 0.4 | -21.8 | -7.9 | -7.0 | 28.2 | -12.1 | -13.1 | 5.0 |  |  |  |  |
| Cl.Nc1nc(N)c2c(ccc3nn(S(=O)(=O)N4CCCC4)cc32)n1 [TCMDC-137854] |  |  |  |  |  |  |  |  | -6.1 | 12.6 | -10.2 | -1.3 | 39.1 | 32.8 | 30.1 | 33.2 |  |  |  |  |
| CCCn1cc2c(ccc3nc(N)nc(N)c32)n1 [TCMDC-137858] |  |  |  |  |  |  |  |  | 9.1 | -22.2 | 2.7 | -1.2 | 0.8 | -0.8 | -25.8 | 1.4 |  |  |  |  |
| CC(C)n1cc2c(ccc3nc(N)nc(N)c32)n1 [TCMDC-137865] |  |  |  |  |  |  |  |  | 4.2 | -9.2 | -1.6 | -0.07 | 12.4 | -22.8 | -29.8 | -10.2 |  |  |  |  |
| Nc1nc(N)c2c(Cl)c(N3CCOCC3)ccc2n1 [TCMDC-137868] | 8.8 | 9.4 | -3.6 | -2.4 | -14.2 | 5.7 | -9.7 | -52.5 |  |  |  |  |  |  |  |  | 0 | 0 | 0 |  |
| Cl.Nc1nc(N)c2c(ccc3c2ccn3C2CCCCC2)n1 [TCMDC-137871] | 10.6 | -11.4 | 35.4 | 4.9 | 11.6 | 19.6 | 1.6 | -3.1 |  |  |  |  |  |  |  |  | 0 | 0 | 0 |  |
